Consider 25 molecules from patent US20020019527A1 (priority 2000, published 2002).

Each structure is given as a SMILES string. Counter-ions that a name gives are not always drawn.

For the experiment, the target named is T1, Farnesyltransferase (FTase) (Bos taurus, UniProt P29702+P49355).
T1 construct: precipitation from a beef brain homogenate; from tissue; host or cells: bovine brain
T1 sequence (P49355 whole entry, one chain of several): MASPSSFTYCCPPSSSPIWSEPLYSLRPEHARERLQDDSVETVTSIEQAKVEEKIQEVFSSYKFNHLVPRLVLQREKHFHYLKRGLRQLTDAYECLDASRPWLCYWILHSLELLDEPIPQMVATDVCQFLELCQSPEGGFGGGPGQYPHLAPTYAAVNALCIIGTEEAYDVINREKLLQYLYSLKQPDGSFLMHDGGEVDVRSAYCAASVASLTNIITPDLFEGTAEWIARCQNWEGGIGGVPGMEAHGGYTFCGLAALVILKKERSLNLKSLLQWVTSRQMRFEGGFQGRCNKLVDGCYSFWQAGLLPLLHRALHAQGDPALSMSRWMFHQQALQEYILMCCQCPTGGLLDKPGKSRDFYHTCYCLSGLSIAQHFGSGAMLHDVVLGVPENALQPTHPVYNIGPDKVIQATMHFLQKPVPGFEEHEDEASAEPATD
The experiment in a line: Farnesyltransferase inhibition (scintillation proximity assay, [3H]-FPP / biotin-K-ras peptide). It counts as biochemical, bovine. The following applies: compound at 10^−6 M; bovine FTase, 37° C., 30 minutes. In outline: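 Read-out: [3H]-FPP prenylation of a biotinylated K-ras peptide by SPA, measured 1 h after quenching. Enzyme: FTase purified from bovine brain (ammonium sulfate cut, DEAE Sepharose), free of GGTase I and II. Test compounds in ethanol, diluted 10-fold into the reaction.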
For the molecule `Cn1cncc1C(OCc1ccc(OC(F)(F)F)cc1)c1ccc(C#N)c(-c2cccc3ccccc23)c1` (stereo not shown) [Example 67, 4-((1-methyl-1H-imidazol-5-yl)((4-(trifluoromethoxy)benzyl)oxy)methyl)-2-(1-naphthyl)benzonitrile hydrochloride], testing at 1 µM gave an inhibition of 100%.
As for `Cn1cncc1C(OCc1cccc(C(F)(F)F)c1)c1ccc(C#N)c(-c2cccc3ccccc23)c1` (stereo not shown) [Example 68, 4-((1-methyl-1H-imidazol-5-yl)((3-(trifluoromethyl)benzyl)oxy)methyl)-2-(1-naphthyl)benzonitrile hydrochloride], at 1 µM the inhibition was 100%.
The same measure, in the same setting: then `Cn1cncc1C(OCc1ccc(C(=O)O)cc1)c1ccc(C#N)c(-c2cccc3ccccc23)c1` (stereo not shown) [Example 69, lithium 4-(((4-cyano-3-(1-naphthyl)phenyl)(1-methyl-1H-imidazol-5-yl)methoxy)methyl)benzoate], with 100%; and `CN(C)C(=O)c1ccc(COC(c2ccc(C#N)c(-c3cccc4ccccc34)c2)c2cncn2C)cc1` (stereo not shown) [Example 70, 4-(((4-cyano-3-(1-naphthyl)phenyl)(1-methyl-1H-imidazol-5-yl)methoxy)methyl)-N,N-dimethylbenzamide hydrochloride], with 100%; and `Cn1cncc1C(c1ccc(C#N)c(-c2cccc3ccccc23)c1)S(=O)(=O)Cc1ccc(C#N)cc1` (stereo not shown) [Example 71, 4-(((4-cyanobenzyl)sulfonyl)(1-methyl-1H-imidazol-5-yl)methyl)-2-(1-naphthyl)benzonitrile hydrochloride], with 100%.
The same measure, in the same setting: then `Cn1cncc1C(OCc1ccc(Cl)cc1Cl)c1ccc(C#N)c(-c2cccc3ccccc23)c1` (stereo not shown) [Example 72, 4-(((2,4-dichlorobenzyl)oxy)(1-methyl-1H-imidazol-5-yl)methyl)-2-(1-naphthyl)benzonitrile hydrochloride], with 100%; and `Cn1cncc1C(OCc1ccc(S(C)(=O)=O)cc1)c1ccc(C#N)c(-c2cccc3ccccc23)c1` (stereo not shown) [Example 73, 4-((1-methyl-1H-imidazol-5-yl)((4-(methylsulfonyl)benzyl)oxy)methyl)-2-(1-naphthyl)benzonitrile hydrochloride], with 100%.
Take `Cl.Cl.Cn1cncc1C(OCc1cc(Cl)nc(Cl)c1)c1ccc(C#N)c(-c2cccc3ccccc23)c1` (stereo not shown) [Example 74, 4-(((2,6-dichloro-4-pyridinyl)methoxy)(1-methyl-1H-imidazol-5-yl)methy)-2-(1-naphthyl)benzonitrile dihydrochloride]: the “% Inhibition at 10^−6M” value was 100%.
`Cn1cncc1C(OCc1ccc(C#N)c(Br)c1)c1ccc(C#N)c(-c2cccc3ccccc23)c1` (stereo not shown) [Example 75, 4-(((3-bromo-4-cyanobenzyl)oxy)(1-methyl-1H-imidazol-5-yl)methyl)-2-(1-naphthyl)benzonitrile hydrochloride] had an inhibition at 1 µM of 100%.
On the same count and under the same terms, then `Cn1cncc1C(OCc1ccc(C#N)c(F)c1)c1ccc(C#N)c(-c2cccc3ccccc23)c1` (stereo not shown) [Example 77, 4-(((4-cyano-3-fluorobenzyl)oxy)(1-methyl-1H-imidazol-5-yl)methyl)-2-(1-naphthyl)benzonitrile hydrochloride], with 100%; and `Cc1ccccc1-c1cc(C(OCc2ccccc2)c2ccsc2)ccc1C#N` (stereo not shown) [Example 80, 5-((benzyloxy)(3-thienyl)methyl)-2′-methyl(1,1′-biphenyl)-2-carbonitrile], with 12%.
Still for that read-out and setting: with `Cc1ccccc1-c1cc(C(OCc2ccccc2)c2cnnn2C)ccc1C#N` (stereo not shown) [Example 81, 5-((benzyloxy)(1-methyl-1H-1,2,3-triazol-5-yl)methyl)-2′-methyl(1,1′-biphenyl)-2-carbonitrile hydrochloride] the figure was 14%; with `Cc1ccccc1-c1cc(CN(CCC2CCCCC2)Cc2cncn2C)ccc1C#N` [Example 82, 5-(((2-cyclohexylethyl)((1-methyl-1H-imidazol-5-yl)methyl)amino)methyl)-2′-methyl(1,1′-biphenyl)-2-carbonitrile hydrochloride], 87%; with `N#Cc1ccc(CN(CCC2CCCCC2)C(=O)Cn2ccnc2)cc1-c1cccc2ccccc12` [Example 85, N-(4-cyano-3-(1-naphthyl)benzyl)-N-(2-cyclohexylethyl)-2-(1H-imidazol-1-yl)acetamide], 46%.
Same read-out and setting: then `Cc1ccccc1-c1cc(C(O)c2cncn2C)ccc1C#N` (stereo not shown) [Example 86, 5-(hydroxy(1-methyl-1H-imidazol-5-yl)methyl)-2′-methyl(1,1′-biphenyl)-2-carbonitrile], with 86%; and `Cn1cncc1C(OCc1ccccc1)c1ccc(C#N)c(-c2ccccc2)c1` (stereo not shown) [Example 87, 5-((benzyloxy)(1-methyl-1H-imidazol-5-yl)methyl)(1,1′-biphenyl)-2-carbonitrile hydrochloride], with 89%.
`Cn1cncc1C(OCc1ccccc1)c1ccc(C#N)c(-c2ccsc2)c1` (stereo not shown) [Example 90, 4-((benzyloxy)(1-methyl-1H-imidazol-5-yl)methyl)-2-(3-thienyl)benzonitrile hydrochloride]: the inhibition at 1 µM was 90%.
Molecule `Cc1cccc(-c2cc(C(OCc3ccccc3)c3cncn3C)ccc2C#N)c1` (stereo not shown) [Example 91, 5-((benzyloxy)(1-methyl-1H-imidazol-5-yl)methyl)-3′-methyl(1,1′-biphenyl)-2-carbonitrile hydrochloride] yielded an inhibition at 1 µM of 94%.
Molecule `Cn1cncc1C(OCc1ccccc1)c1ccc(C#N)c(-c2ccc3ccccc3c2)c1` (stereo not shown) [Example 92, 4-((benzyloxy)(1-methyl-1H-imidazol-5-yl)methyl)-2-(2-naphthyl)benzonitrile hydrochloride] came in with an inhibition at 1 µM of 53%.
Same read-out and setting: then `Cc1ccc(-c2cc(C(OCc3ccccc3)c3cncn3C)ccc2C#N)cc1` (stereo not shown) [Example 93, 5-((benzyloxy)(1-methyl-1H-imidazol-5-yl)methyl)-4′-methyl(1,1′-biphenyl)-2-carbonitrile hydrochloride], with 58%; and `Cn1cncc1C(OCc1ccccc1)c1ccc(C#N)c(C2CCCCC2)c1` (stereo not shown) [Example 100, 4-((benzyloxy)(1-methyl-1H-imidazol-5-yl)methyl)-2-cyclohexylbenzonitrile hydrochloride], with 83%; and `CCOCn1cncc1C(OCc1ccccc1)c1ccc(C#N)c(-c2cccc3ccccc23)c1` (stereo not shown) [Example 105, 4-((benzyloxy)(1-(ethoxymethyl)-1H-imidazol-5-yl)methyl)-2-(1-naphthyl)benzonitrile hydrochloride], with 82%.
Same read-out and setting: with `Cc1ccccc1-c1cc(C(O)(C#Cc2ccccc2)c2cncn2C)ccc1C#N` (stereo not shown) [Example 109, 5-(1-hydroxy-1-(1-methyl-1H-imidazol-5-yl)-3-phenyl-2-propynyl)-2′-methyl(1,1′-biphenyl)-2-carbonitrile] the figure was 100%; with `Cc1ccccc1-c1cc(C(O)(CCc2ccccc2)c2cncn2C)ccc1C#N` (stereo not shown) [Example 110, 5-(1-hydroxy-1-(1-methyl-1H-imidazol-5-yl)-3-phenylpropyl)-2′-methyl(1,1′-biphenyl)-2-carbonitrile], 96%; with `Cn1cncc1C(O)(C#Cc1ccccc1)c1ccc(C#N)c(-c2cccc3ccccc23)c1` (stereo not shown) [Example 111, 4-(1-hydroxy-1-(1-methyl-1H-imidazol-5-yl)-3-phenyl-2-propynyl)-2-(1-naphthyl)benzonitrile], 100%.
